One data set concerns the target T1, human AT2R (Homo sapiens, UniProt P50052).
T1 construct: host or cells: HEK-293
T1 sequence (P50052 1-363): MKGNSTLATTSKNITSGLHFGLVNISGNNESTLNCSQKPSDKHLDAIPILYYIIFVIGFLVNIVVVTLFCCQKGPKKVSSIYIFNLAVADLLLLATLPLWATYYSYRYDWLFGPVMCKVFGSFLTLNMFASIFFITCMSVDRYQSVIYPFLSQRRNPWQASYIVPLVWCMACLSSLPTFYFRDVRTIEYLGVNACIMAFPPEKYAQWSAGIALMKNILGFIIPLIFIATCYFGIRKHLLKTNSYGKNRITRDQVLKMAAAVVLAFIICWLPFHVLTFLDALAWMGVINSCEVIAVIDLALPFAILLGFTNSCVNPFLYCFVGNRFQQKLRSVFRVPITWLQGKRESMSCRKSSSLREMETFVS
The class given is binding. To be noted: HEK-293 cell membranes.

Another data set deals with T2, human AT1R (Homo sapiens, UniProt P30556).
T2 construct: host or cells: HEK-293
T2 sequence (P30556 1-359): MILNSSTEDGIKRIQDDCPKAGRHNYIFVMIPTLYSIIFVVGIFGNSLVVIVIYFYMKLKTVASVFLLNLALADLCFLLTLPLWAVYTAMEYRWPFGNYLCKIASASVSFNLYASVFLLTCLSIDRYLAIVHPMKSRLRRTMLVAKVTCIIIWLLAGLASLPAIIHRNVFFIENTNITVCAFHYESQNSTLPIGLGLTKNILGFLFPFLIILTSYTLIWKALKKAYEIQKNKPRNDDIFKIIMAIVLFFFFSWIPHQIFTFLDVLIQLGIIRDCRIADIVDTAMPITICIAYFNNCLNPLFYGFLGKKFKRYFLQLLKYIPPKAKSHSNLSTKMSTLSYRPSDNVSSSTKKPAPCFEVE
The class given is binding. To be noted: HEK-293 cell membranes.

Data set [1] is described as follows: Stability in human liver microsomes. It counts as in vitro ADME. The conditions noted are these: half-life. The procedure: Stability in liver microsomes. Human, mouse and rat liver microsomes were used to assess the metabolic stability for the compounds. Metabolic stability was determined in 0.5 mg/mL human, mouse or rat liver microsomes at a compound concentration of 1 μM in 100 mM potassium phosphate buffer (pH 7.4) in a total incubation volume of 500 μL by Eurofins. The assay matrix was: human liver microsomes: mixed gender and pool of 50, rat liver microsomes: male, Sprague-Dawley, pool of 100 or more and mouse liver microsomes: male,CD-1, pool of 250 or more. Final microsomal protein concentration: 0.1mg/mL. The test concentration was 0.1 μM with 0.01% DMSO, 0.25% acetonitrile and 0.25% methanol by default. […] The reaction was initiated by adding NADPH-generating system and was incubated for 0, 15, 30, 45, and 60 min. The reaction was stopped by transferring the incubation mixture to acetonitrile/methanol. Samples were then mixed and centrifuged. Four reference compounds were tested in each assay. Propranolol and imipramine are relatively stable, whereas verapamil and terfenadine are readily metabolized inhuman liver microsomes. Samples were analyzed by HPLC-MS/MS using selected reaction monitoring. The HPLC system consisted of a binary LC pump with autosampler, a C-18 column, and a gradient. Peak areas corresponding to the test compound were recorded. The compound remaining was calculated by comparing the peak area at each time point to time zero. The half-life was calculated from the slope of the initial linear range of the logarithmic curve of compound remaining (%) vs. time, assuming first order kinetics. In addition, the intrinsic clearance (Clint) was calculated.^19,20
In general terms: Microsomes from liver hold many membrane-bound enzymes, among them those of drug oxidation.

A value given as a limit tells only on which side of the number the result lay.

Here are results for 26 molecules from patent US20230159467A1, “NOVEL COMPOUNDS USEFUL IN THE TREATMENT AND/OR PREVENTION OF A DISEASE, DISORDER OR CONDITION ASSOCIATED WITH ANGIOTENSIN II” (Vicore Pharma AB, priority 2020, published 2023).

On to `COC(=O)NS(=O)(=O)c1ccc(CC(C)C)cc1-c1ccc(Cn2ccnc2C(C)C)cc1` [Example 36, Methyl ((5-isobutyl-4′-((2-(isopropan-2-yl)-1H-imidazol-1-yl)methyl)-[1,1′-biphenyl]-2-yl)sulfonyl)carbamate], for which the Ki – broadly, a measure of affinity in units of concentration, obtained from inhibition or displacement – on human AT2R was determined as 3.26 nM.
The molecule `COC(=O)NS(=O)(=O)c1sc(CC(C)C)cc1-c1ccc(Cn2ccnc2C(C)(C)O)cc1` [Example 41] yielded a Ki on human AT2R of 3.08 nM.
Take `CCCc1nc(-c2ccc(Cn3ccnc3C(C)(C)C)cc2)c(S(=O)(=O)NC(=O)OC)s1` [Example 5, Methyl ((4-(4-((2-(tert-butyl)-1H-imidazol-1-yl)methyl)phenyl)-2-propylthiazol-5-yl)sulfonyl)carbamate]: the results for the Ki on human AT1R and at human AT2R were roughly 1000 nM and 190 nM, respectively.
Turning to `CCCCOC(=O)NS(=O)(=O)c1sc(CCC)nc1-c1ccc(Cn2ccnc2C(C)C)cc1` [Example 15, Butyl ((4-(4-((2-isopropyl-1H-imidazol-1-yl)methyl)phenyl)-2-propylthiazol-5-yl)sulfonyl)carbamate], on human AT2R, the Ki was 39 nM. Besides, the “Stability in liver microsomes HLM” value in data set [1] is on record as greater than 60 min.
As to `CCCCOC(=O)NS(=O)(=O)c1ccc(CC(C)C)cc1-c1ccc(Cn2ccnc2C(C)(C)C)cc1` [Example 2A, Butyl ((4′-((2-(tert-butyl)-1H-imidazol-1-yl)methyl)-5-isobutyl-[1,1′-biphenyl]-2-yl)sulfonyl)carbamate], the Ki on human AT1R is roughly 10000 nM; at human AT2R, 15 nM.
In turn, `CCCc1nc(-c2ccc(Cn3ccnc3C(C)O)cc2)c(S(=O)(=O)NC(=O)OC)s1` (stereo not drawn) [Example 25, Methyl ((4-(4-((2-(1-hydroxyethyl)-1H-imidazol-1-yl)methyl)phenyl)-2-propylthiazol-5-yl)sulfonyl)carbamate] showed a Ki on human AT2R of 1600 nM.
On the same count and under the same terms, then `CCCCOC(=O)NS(=O)(=O)c1sc(CC(C)C)cc1-c1ccc(Cn2ccnc2C(C)(C)F)cc1` [Example 42], with 1.66 nM.
As for `COC(=O)NS(=O)(=O)c1sc(CC(C)C)nc1-c1ccc(Cn2ccnc2C(C)O)cc1` (stereo not drawn) [Example 23, Methyl ((4-(4-((2-(1-hydroxyethyl)-1H-imidazol-1-yl)methyl)phenyl)-2-isobutylthiazol-5-yl)sulfonyl)carbamate], the “Stability in liver microsomes HLM” value in data set [1] is greater than 60 min.
On human AT2R, `CCCCOC(=O)NS(=O)(=O)c1sc(CC(C)C)nc1-c1ccc(Cn2ccnc2C(C)(C)F)cc1` [Example 47, Butyl ((4-(4-((2-(2-fluoropropan-2-yl)-1H-imidazol-1-yl)methyl)phenyl)-2-isobutylthiazol-5-yl)sulfonyl)carbamate] returned a Ki of 56 nM.
Regarding `CCCCOC(=O)NS(=O)(=O)c1sc(CCC)nc1-c1ccc(Cn2ccnc2-c2nccs2)cc1` [Example 21, Butyl ((2-propyl-4-(4-((2-(thiazol-2-yl)-1H-imidazol-1-yl)methyl)phenyl)thiazol-5-yl)sulfonyl)carbamate], the Ki is 1000 nM at human AT1R and 350 nM on human AT2R.
In turn, `COC(=O)NS(=O)(=O)c1sc(CC(C)C)nc1-c1ccc(Cn2ccnc2C(C)(C)F)cc1` [Example 48, Methyl ((4-(4-((2-(2-fluoropropan-2-yl)-1H-imidazol-1-yl)methyl)phenyl)-2-isobutylthiazol-5-yl)sulfonyl)carbamate] had a Ki on human AT2R of 475 nM.
Take `CCCCOC(=O)NS(=O)(=O)c1sc(CCC)nc1-c1ccc(Cn2ccnc2C2CC2)cc1` [Example 29, Butyl ((4-(4-((2-cyclopropyl-1H-imidazol-1-yl)methyl)phenyl)-2-propylthiazol-5-yl)sulfonyl)carbamate]: the figures for the Ki at human AT1R and on human AT2R were 15000 nM and 36 nM, respectively.
On human AT2R, `CCCCOC(=O)NS(=O)(=O)c1sc(CC(C)C)cc1-c1ccc(Cn2ccnc2C(C)(C)O)cc1` [Example 40A] yielded a Ki of 9.62 nM.
`COC(=O)NS(=O)(=O)c1ccc(CC(C)C)cc1-c1ccc(Cn2ccnc2C2CC2)cc1` [Example 39A, Methyl ((5-isobutyl-4′-((2-(cyclopropan-2-yl)-1H-imidazol-1-yl)methyl)-[1,1′-biphenyl]-2-yl)sulfonyl)carbamate]: at human AT2R, the Ki was 4.8 nM.
For the molecule `CCCCOC(=O)NS(=O)(=O)c1sc(CCC)nc1-c1ccc(Cn2ccnc2C(C)(C)C)cc1` [Example 6, Butyl ((4-(4-((2-(tert-butyl)-1H-imidazol-1-yl)methyl)phenyl)-2-propylthiazol-5-yl)sulfonyl) carbamate], the Ki on human AT1R is roughly 1000 nM; on human AT2R, 71 nM.
Consider `CCCCOC(=O)NS(=O)(=O)c1sc(CCC)nc1-c1ccc(Cn2ccnc2C(C)(C)F)cc1` [Example 45, Butyl ((4-(4-((2-(2-fluoropropan-2-yl)-1H-imidazol-1-yl)methyl)phenyl)-2-propylthiazol-5-yl)sulfonyl)carbamate], for which the Ki on human AT2R was greater than 1000 nM.
On to `CCCCOC(=O)NS(=O)(=O)c1ccc(CC(C)C)cc1-c1ccc(Cn2ccnc2C2CC2)cc1` [Example 38A, Butyl ((5-isobutyl-4′-((2-(cyclopropan-2-yl)-1H-imidazol-1-yl)methyl)-[1,1′-biphenyl]-2-yl)sulfonyl)carbamate], for which the Ki at human AT2R was 5.64 nM.
On to `COC(=O)NS(=O)(=O)c1sc(CC(C)C)nc1-c1ccc(Cn2ccnc2C2CC2)cc1` [Example 26, Methyl ((4-(4-((2-cyclopropyl-1H-imidazol-1-yl)methyl)phenyl)-2-isobutylthiazol-5-yl)sulfonyl)carbamate], for which the Ki at human AT1R is 13000 nM; at human AT2R, 99 nM.
In turn, `CCCCOC(=O)NS(=O)(=O)c1ccc(CC(C)C)cc1-c1ccc(Cn2ccnc2C(C)C)cc1` [Example 37A, Butyl ((5-isobutyl-4′-((2-(isopropan-2-yl)-1H-imidazol-1-yl)methyl)-[1,1′-biphenyl]-2-yl)sulfonyl)carbamate] showed a Ki at human AT2R of 2.22 nM. That is a single-digit nanomolar value.
For `CCCCOC(=O)NS(=O)(=O)c1sc(CC(C)C)nc1-c1ccc(Cn2ccnc2C2CC2)cc1` [Example 27, Butyl ((4-(4-((2-cyclopropyl-1H-imidazol-1-yl)methyl)phenyl)-2-isobutylthiazol-5-yl)sulfonyl)carbamate], the inhibitory constant (Ki) at human AT1R was 8000 nM; on human AT2R, 11 nM.
With `CCCCOC(=O)[N-]S(=O)(=O)c1ccc(CCC)cc1-c1ccc(Cn2ccnc2C(C)(C)O)cc1.[K+]` [Example 31B, Potassium (butoxycarbonyl) ((4′-((2-(2-hydroxypropan-2-yl)-1H-imidazol-1-yl)methyl)-5-propyl-[1,1′-biphenyl]-2-yl)sulfonyl)amide], the “Stability in liver microsomes HLM” value in data set [1] came out at 20 min.
As for `CCCCOC(=O)NS(=O)(=O)c1ccc(CC(C)C)cc1-c1ccc(Cn2ccnc2-c2nccs2)cc1` [Example 35B, Potassium (butoxycarbonyl) ((5-isobutyl-4′-((2-(thiazol-2-yl)-1H-imidazolyl)methyl)-[1,1′-biphenyl]-2-yl)sulfonyl)amide], the Ki at human AT1R turned out to be 7000 nM; at human AT2R, 6.7 nM.
At human AT2R, `COCCOC(=O)NS(=O)(=O)c1sc(CC(C)C)cc1-c1ccc(Cn2ccnc2C(C)(C)C)cc1` [Example 44] gave a Ki of 2.54 nM. This counts as single-digit nanomolar.
Molecule `CCCc1nc(-c2ccc(Cn3ccnc3C(C)(C)F)cc2)c(S(=O)(=O)NC(=O)OC)s1` [Example 46, Methyl ((4-(4-((2-(2-fluoropropan-2-yl)-1H-imidazol-1-yl)methyl)phenyl)-2-propylthiazol-5-yl)sulfonyl)carbamate] showed a Ki at human AT2R greater than 1000 nM.
The molecule `COC(=O)NS(=O)(=O)c1sc(CC(C)C)cc1-c1ccc(Cn2ccnc2C(C)(C)F)cc1` [Example 43] displayed a Ki at human AT2R of 3.74 nM.
Turning to `CCCc1nc(-c2ccc(Cn3ccnc3C3CC3)cc2)c(S(=O)(=O)NC(=O)OC)s1` [Example 28, Methyl ((4-(4-((2-cyclopropyl-1H-imidazol-1-yl)methyl)phenyl)-2-propylthiazol-5-yl)sulfonyl)carbamate], the Ki at human AT1R worked out at 20000 nM; on human AT2R, 274 nM.
